Tests used:
[1] = molecular target: T1, SirT1 (HCT116 cells) (Homo sapiens, UniProt Q96EB6); test: whole cell sirtuin (SirT1) activity in HCT116 cells with Fluor-de-Lys-SirT1 substrate; assay type: cell-based; details: for inhibition of whole cell SirT1 activity: 1.5 hours pre-incubation, Fluor-de-Lys-SirT1 500 uM
T1 construct: endogenous in cells; host or cells: HCT116
T1 sequence (Q96EB6 1-747): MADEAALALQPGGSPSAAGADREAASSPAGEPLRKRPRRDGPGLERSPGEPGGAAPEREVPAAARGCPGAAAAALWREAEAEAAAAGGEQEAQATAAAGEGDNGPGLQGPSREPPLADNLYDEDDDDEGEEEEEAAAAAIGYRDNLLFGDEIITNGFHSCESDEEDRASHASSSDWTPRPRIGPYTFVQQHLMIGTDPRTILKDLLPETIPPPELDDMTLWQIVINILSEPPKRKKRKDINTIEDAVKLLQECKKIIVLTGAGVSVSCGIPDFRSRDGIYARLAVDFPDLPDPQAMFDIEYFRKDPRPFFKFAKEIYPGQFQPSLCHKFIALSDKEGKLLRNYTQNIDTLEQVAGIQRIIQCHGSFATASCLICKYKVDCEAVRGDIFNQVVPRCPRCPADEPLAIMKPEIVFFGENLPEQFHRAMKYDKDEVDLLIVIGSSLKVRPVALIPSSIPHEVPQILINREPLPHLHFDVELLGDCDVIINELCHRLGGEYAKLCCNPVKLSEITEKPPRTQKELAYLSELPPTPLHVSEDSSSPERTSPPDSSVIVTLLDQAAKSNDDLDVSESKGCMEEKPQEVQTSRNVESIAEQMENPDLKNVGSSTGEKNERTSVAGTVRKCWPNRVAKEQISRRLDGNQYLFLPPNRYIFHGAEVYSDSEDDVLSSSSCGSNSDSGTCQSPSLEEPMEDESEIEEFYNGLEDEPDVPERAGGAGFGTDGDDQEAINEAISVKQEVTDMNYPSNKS
Excerpt: Cultured cells (HCT116) were trypsinized and counted by trypan blue exclusion. Live cells (2×10^5) were distributed to each well of the 96-well plate. […] Independently, we fixed concentrations of either Fluor-de-Lys-SirT1 substrate or Fluor-de-Lys-SirT2 in whole cells and analyzed the effect of exogeneous NAD+ concentration on whole cell sirtuin activity (FIG. 7b). […] Therefore the reading was done immediately after stopping.
Cultured HCT116 cells were counted and distributed to each well of the 96-well plate. […] After addition of Sirtuin substrate (Fluor-de-Lys-SirT1, 500 uM) or HDAC substrate Boc-Lys(Ac)-AMC (300 uM), the cells are further incubated for an additional 2 hours. Reaction was stopped and read as described in Examples 3 and 6. […] This observation is consistent with our finding in Example 7 that TSA can not inhibit class III (Sirtuins) in vitro.

[2] = molecular target: T2, recombinant Sirt2 (Homo sapiens, UniProt Q8IXJ6); test: recombinant Sirt2 enzyme assay in vitro (Fluor-de-Lys-SirT2 substrate); assay type: biochemical; details: for inhibition of recombinant Sirt2 in vitro: TSA up to 10 uM; for IC50: 45 minutes, read-out: IC50 against recombinant Sirt2
T2 construct: purchased Biomol
T2 sequence (Q8IXJ6 1-389): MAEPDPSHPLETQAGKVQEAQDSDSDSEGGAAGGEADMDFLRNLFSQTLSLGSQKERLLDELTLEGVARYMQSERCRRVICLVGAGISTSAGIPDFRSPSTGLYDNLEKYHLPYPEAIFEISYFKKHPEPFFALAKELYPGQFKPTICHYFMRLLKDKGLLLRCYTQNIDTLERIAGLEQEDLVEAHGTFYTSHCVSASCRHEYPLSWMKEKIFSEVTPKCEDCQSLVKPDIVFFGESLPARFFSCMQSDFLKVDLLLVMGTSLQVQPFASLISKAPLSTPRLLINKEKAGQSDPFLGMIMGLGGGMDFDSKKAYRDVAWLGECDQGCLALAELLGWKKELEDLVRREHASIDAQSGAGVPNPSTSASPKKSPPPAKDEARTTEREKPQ
Excerpt: (§1) Human SirT1, 2, 3 recombinant enzymes were purchased from Biomol (Biomol, Plymouth Meeting, Philadelphia).
(§2) Reaction is read as described in Example 3.

[3] = molecular target: T3, recombinant Sirt1 (Homo sapiens, UniProt Q96EB6); test: recombinant Sirt1 enzyme assay in vitro (Fluor-de-Lys-SirT1 substrate); assay type: biochemical; details: for inhibition of recombinant Sirt1 in vitro: TSA up to 10 uM
T3 construct: purchased Biomol
T3 sequence (Q96EB6 1-747): T1 sequence (Q96EB6 1-747)
Excerpt: as §1, §2

[4] = tested on: HDAC (HCT116 cells); test: whole cell deacetylase (HDAC) assay in HCT116 cells with Boc-Lys(Ac)-AMC; assay type: cell-based, human
Description: (§3) Freshly trypsinized cells were dispensed into 96-well black Costar E1A/RIA plates (Corning Inc., Corning, N.Y.). Small molecule substrate Boc-Lys(Ac)-AMC (Bachem Biosciences Inc., King of Prussia, Philadelphia) was added to cell suspension with the final concentration of 300 uM. Cells were placed in 37° C. incubator with 5% CO2 for 90 minutes. Reaction was stopped by adding a freshly prepared Flouor-de-Lys™ deleveloper (Biomol, Plymouth Meeting, Philadelphia) with 1 uM TSA (Biomol) in assay buffer (25 mM Tris, HCl pH8.0, 137 mM NaCl, 2.7 mM KCl, 1 mM MgCl2) plus 1% NP-40. With the presence of 1% NP-40, both excellular and intracellular HDAC activity was measured in cultured cells altogether.
(§4) HDAC enzyme assay in intact cells was carried out as described in Example 3.
Cultured HCT116 cells were counted and distributed to each well of the 96-well plate. […] After addition of Sirtuin substrate (Fluor-de-Lys-SirT1, 500 uM) or HDAC substrate Boc-Lys(Ac)-AMC (300 uM), the cells are further incubated for an additional 2 hours. Reaction was stopped and read as described in Examples 3 and 6.

[5] = molecular target: T4, SirT1 (mouse white blood cells) (Mus musculus, UniProt Q923E4); test: ex vivo whole cell Sirt1 activity in mouse white blood cells; assay type: cell-based; details: 90 minute incubation, 200 uM Fluor-de-Lys Sirt1
T4 construct: from tissue; host or cells: mouse white blood cells
T4 sequence (Q923E4 1-737): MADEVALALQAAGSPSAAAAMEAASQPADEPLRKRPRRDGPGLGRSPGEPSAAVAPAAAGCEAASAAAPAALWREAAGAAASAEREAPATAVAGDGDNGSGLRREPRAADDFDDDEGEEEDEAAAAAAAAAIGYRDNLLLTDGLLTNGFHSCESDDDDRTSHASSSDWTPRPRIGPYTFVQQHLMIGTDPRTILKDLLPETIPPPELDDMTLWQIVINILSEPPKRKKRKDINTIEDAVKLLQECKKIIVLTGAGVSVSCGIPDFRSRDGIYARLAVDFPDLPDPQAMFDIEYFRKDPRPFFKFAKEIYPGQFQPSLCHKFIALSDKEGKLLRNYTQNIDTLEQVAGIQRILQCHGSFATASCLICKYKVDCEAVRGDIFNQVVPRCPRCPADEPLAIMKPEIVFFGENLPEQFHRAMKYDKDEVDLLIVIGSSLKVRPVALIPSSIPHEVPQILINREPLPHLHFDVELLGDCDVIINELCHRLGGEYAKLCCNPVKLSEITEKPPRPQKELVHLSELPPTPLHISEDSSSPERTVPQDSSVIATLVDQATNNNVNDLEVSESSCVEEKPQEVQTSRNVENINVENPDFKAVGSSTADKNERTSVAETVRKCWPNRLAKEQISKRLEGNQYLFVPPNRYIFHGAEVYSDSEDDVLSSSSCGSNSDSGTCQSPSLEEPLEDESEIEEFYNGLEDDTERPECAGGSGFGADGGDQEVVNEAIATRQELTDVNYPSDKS
Description: Mouse blood was collected in heparin tubes. Erythrocytes were lysed with five volumes of Erythrocyte Lysis buffer (EL, Qiagen Canada Inc, Mississauga, Ontario). White blood cells were recovered by centrifugation (400×g for 5 min), washed and resuspended in RPMI (+10% FBS), then counted. […] After 90 minute incubation, reaction was stopped with one volume of assay buffer (50 mM Tris-Ci pH 8.0, 137 mM NaCl, 2.7 mM KCl, 1 mM MgCl2) supplemented with 1× Developer II (BioMol, Plymouth Meeting, Philadelphia) and 1% NP40.

[6] = molecular target: T5, recombinant Sirt3 (Homo sapiens, UniProt Q9NTG7); test: recombinant Sirt3 enzyme assay in vitro (Fluor-de-Lys-SirT2 substrate); assay type: biochemical
T5 construct: purchased Biomol
T5 sequence (Q9NTG7 1-399): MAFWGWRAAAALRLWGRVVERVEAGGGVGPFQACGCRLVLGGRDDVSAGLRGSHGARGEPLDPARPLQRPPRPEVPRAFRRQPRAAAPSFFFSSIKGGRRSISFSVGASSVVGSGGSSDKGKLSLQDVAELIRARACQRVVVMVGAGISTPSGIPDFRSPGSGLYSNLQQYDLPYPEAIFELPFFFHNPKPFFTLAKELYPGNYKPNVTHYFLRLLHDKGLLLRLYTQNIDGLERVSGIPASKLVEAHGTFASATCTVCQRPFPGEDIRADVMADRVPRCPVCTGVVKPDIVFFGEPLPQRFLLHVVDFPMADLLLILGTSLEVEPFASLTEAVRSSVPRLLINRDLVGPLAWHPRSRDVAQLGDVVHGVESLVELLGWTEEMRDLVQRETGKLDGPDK
Excerpt: as §1, §2

[7] = tested on: HDAC (293T cells); test: whole cell deacetylase (HDAC) assay in 293T cells with Boc-Lys(Ac)-AMC; assay type: cell-based, human; details: for IC50: pre-incubated with inhibitors 16 hours, mean of at least 2 experiments
Description: as §3, §4

[8] = tested on: HDAC (human white blood cells); test: ex vivo inhibition of whole cell HDAC activity in human white blood cells; assay type: cell-based; details: 16 hours incubation
Description: Whole blood (human or mouse) was centrifuged at 2500 rpm for 10 minutes at ambient temperature in a Sorvall RT-7 centrifuge (Mandel Scientific Co., Guelph, Ontario). Plasma was removed and buffy coat was collected. Five volumes of Erythrocyte Lysis Buffer (EL) (Qiagen Canada Inc., Mississauga, Ontario) were added to buffy coat. Buffy coat was incubated on ice for 20 minutes before it was centrifuged at 400 g for 10 minutes at 4° C. Supernatant was removed and buffy coat was washed twice with EL buffer and re-centrifugation. Buffy coat was resuspended in RPMI media and cells (white blood cells) were counted with trypan blue exclusion.

[9] = tested on: HDAC (A549 cells); test: whole cell deacetylase (HDAC) assay in A549 cells with Boc-Lys(Ac)-AMC; assay type: cell-based, human; details: pre-incubated with inhibitors 16 hours, mean of at least 2 experiments
Description: as §3, §4

[10] = tested on: HDAC (Jurkat T cells); test: whole cell deacetylase (HDAC) assay in Jurkat T cells with Boc-Lys(Ac)-AMC; assay type: cell-based, human; details: pre-incubated with inhibitors 16 hours, mean of at least 2 experiments
Description: as §3, §4

[11] = tested on: HDAC (Du145 cells); test: whole cell deacetylase (HDAC) assay in Du145 cells with Boc-Lys(Ac)-AMC; assay type: cell-based, human; details: pre-incubated with inhibitors 16 hours, mean of at least 2 experiments
Description: as §3, §4

SMILES: CC(/C=C/C(=O)NO)=C\[C@@H](C)C(=O)c1ccc(N(C)C)cc1 [TSA, trichostatin A]
- inhibition of whole cell SirT1 activity ([1]; HCT116 cells): not
- inhibition of recombinant Sirt2 in vitro [2]: does not inhibit
- IC50 ([2]; substrate FldSirt2): > 10 µM
- inhibition of recombinant Sirt1 in vitro [3]: does not inhibit
- IC50 ([3]; substrate FldSirt1, 45 minutes, read-out: IC50 against recombinant Sirt1): > 10 µM
- inhibition of whole cell HDAC activity ([4]; Boc-Lys(Ac)-AMC 300 uM): could inhibit whole cell HDAC activity

SMILES: Cc1ccc(C(=O)Nc2ccc(S(=O)(=O)O)c3cc(S(=O)(=O)O)cc(S(=O)(=O)O)c23)cc1NC(=O)c1cccc(NC(=O)Nc2cccc(C(=O)Nc3cc(C(=O)Nc4ccc(S(=O)(=O)O)c5cc(S(=O)(=O)O)cc(S(=O)(=O)O)c45)ccc3C)c2)c1 [suramin]
- inhibition of SirT1 in whole mouse white blood cells [5]: inhibits SirT1 enzymes in whole white blood cells
- inhibition of whole cell SirT1 activity ([1]; HCT116 cells): inihibits whole cell SirT1 activity in a dose-dependent manner
- inhibition of recombinant SirT3 in vitro [6]: inhibits
- IC50 ([6]; substrate FldSirt2, 45 minutes, read-out: IC50 against recombinant Sirt3): 575 µM
- inhibition of recombinant Sirt2 in vitro [2]: inhibits
- IC50 ([2]; substrate FldSirt2): 14 µM
- inhibition of recombinant Sirt1 in vitro [3]: inhibits

SMILES: NC(=O)c1cccnc1 [nicotinamide]
- quenching of the whole cell sirtuin reaction ([1]; HCT116 whole cells): ineffective at quenching the reaction

SMILES: CC(=O)O[C@H]1C(=O)[C@@]2(C)[C@H]([C@H](OC(=O)c3ccccc3)[C@]3(O)C[C@H](OC(=O)[C@H](O)[C@@H](NC(=O)c4ccccc4)c4ccccc4)C(C)=C1C3(C)C)[C@]1(OC(C)=O)CO[C@@H]1C[C@@H]2O [taxol]
- effect on HDAC activity in whole cells [7]: no effect on HDAC activity
- IC50 [7]: > 50 µM

SMILES: NC(=O)c1ccc[n+]([C@@H]2O[C@H](COP(=O)([O-])OP(=O)(O)OC[C@H]3O[C@@H](n4cnc5c(N)ncnc54)[C@H](O)[C@@H]3O)[C@@H](O)[C@H]2O)c1 [NAD+]
- effect of exogenous NAD+ on whole cell sirtuin activity ([1]; HCT116 cells, fixed Fluor-de-Lys-SirT1 or Fluor-de-Lys-SirT2 substrate): no effect on whole cell sirtuin activity

SMILES: Oc1ccc(C=Cc2cc(O)cc(O)c2)cc1 [Resveratrol]
- activation of whole cell sirtuin (SirT1) activity ([1]; HCT116 cells, 1.5 hour pre-incubation): could activate whole cell sirtuin (SirT1) activity in a dose-dependent manner
- EC50 ([6]; substrate FldSirt2, activation, read-out: EC50 to activate recombinant Sirt3 in vitro): > 2000 µM
- EC50 ([2]; substrate FldSirt2, activation, read-out: EC50 to activate recombinant Sirt2 in vitro): 912 µM
- activation of recombinant Sirt1 in vitro [3]: can activate Sirt1 enzymes in vitro in a dose dependent manner

SMILES: O=C(/C=C/c1ccc(CN(CCO)CCc2c[nH]c3ccccc23)cc1)NO [LAQ-824]
- inhibition of whole cell HDAC activity in human white blood cells [8]: dose-dependent inhibition
- IC50 [9]: 0.02 µM
- IC50 [10]: 0.04 µM
- IC50 ([4]; pre-incubated with inhibitors 16 hours, mean of at least 2 experiments): 0.06 µM
- IC50 [7]: 0.04 µM
- IC50 [11]: 0.05 µM

Reference: patent US20060063210A1, “Histone deacetylase whole cell enzyme assay” (Methylgene, Inc., priority 2004, published 2006)
